Test results from US9434734B2, “Substituted pyrazoloquinazolinones and pyrroloquinazolinones as allosteric modulators of group II metabotropic glutamate receptors” (Domain Therapeutics, priority 2012, dated 2016).
Structures can show the parent of a compound that is named as a salt.

Row | Compound | melting point [°C]
1 | Cc1cc(-c2ccc3c(=O)n(CC(F)(F)F)c4cc(C5CCOCC5)nn4c3c2)cc(C)n1.Cl | > 250
2 | Cc1cc(-c2cc3n(C)c(=O)c4ccc(-c5ccn[nH]5)cc4n3n2)cc(C)n1.Cl | > 250
3 | Cc1ncccc1-c1ccc2c(=O)n(C)c3cc(-c4cnn(C)c4)nn3c2c1.Cl | 169 to 187
4 | Cc1cc(N)nc(C)c1-c1ccc2c(=O)n(C)c3cc(-c4ccccc4)nn3c2c1.Cl | > 250
5 | COCCc1cc2n(C)c(=O)c3ccc(-c4cc(C)nc(C)c4)cc3n2n1.Cl | 241 to 245
6 | CCCn1c(=O)c2ccc(-c3ccc(N)nc3)cc2n2nc(CCOC)cc12.Cl | 96 to 102
7 | COCc1cc2n(C)c(=O)c3ccc(-c4ccc(N)nc4)cc3n2n1.Cl | 235 to 242
8 | Cc1cc(-c2ccc3c(=O)n(CC(F)(F)F)c4cc(C5CCCC5)nn4c3c2)cc(C)n1.Cl | > 250
9 | Cl.Cn1c(=O)c2ccc(-c3ccncc3)cc2n2nc(C3CCOCC3)cc12 | 218 to 223
10 | Cc1cc(-c2cc3n(C)c(=O)c4ccc(-c5ccc(N)nc5)cc4n3n2)cc(C)n1 (as salt: salt) [Example 112, 8-(6-Amino-pyridin-3-yl)-2-(2,6-dimethyl-pyridin-4-yl)-4-methyl-4H-pyrazolo[1,5-a]quinazolin-5-one] | > 250
11 | Cc1cc(-c2cc3n(C)c(=O)c4ccc(-c5cccnc5C)cc4n3n2)cc(C)n1 (as salt: salt) [Example 113, 2-(2,6-Dimethyl-pyridin-4-yl)-4-methyl-8-(2-methyl-pyridin-3-yl)-4H-pyrazolo[1,5-a]quinazolin-5-one] | > 250
12 | Cc1ccc(-c2ccc3c(=O)n(C)c4cc(-c5cc(C)nc(C)c5)nn4c3c2)cn1 (as salt: salt) [Example 117, 2-(2,6-Dimethyl-pyridin-4-yl)-4-methyl-8-(6-methyl-pyridin-3-yl)-4H-pyrazolo[1,5-a]quinazolin-5-one] | > 250
13 | Cc1cc(-c2cc3n(C)c(=O)c4ccc(-c5cnccc5C)cc4n3n2)cc(C)n1 (as salt: salt) [Example 119, 2-(2,6-Dimethyl-pyridin-4-yl)-4-methyl-8-(4-methyl-pyridin-3-yl)-4H-pyrazolo[1,5-a]quinazolin-5-one] | > 250
14 | Cc1cc(-c2cc3n(C)c(=O)c4ccc(-c5cccnc5C)cc4n3n2)ccn1 (as salt: salt) [Example 132, 2-(2-methyl-pyridin-4-yl)-4-methyl-8-(2-methyl-pyridin-3-yl)-4H-pyrazolo[1,5-a]quinazolin-5-one] | > 250
15 | Cn1c(=O)c2ccc(-c3cccc(-c4nn[nH]n4)c3)cc2n2nc(-c3ccccc3)cc12 (as salt: sodium) [Example 36, 4-Methyl-2-phenyl-8-[3-(2H-tetrazol-5-yl)-phenyl]-4H-pyrazolo[1,5-a]quinazolin-5-one] | > 250
16 | Cn1c(=O)c2ccc(-c3cccc(-c4nn[nH]n4)c3)cc2n2nc(C3CCOCC3)cc12 (as salt: sodium) [Example 96, 4-Methyl-2-(tetrahydro-pyran-4-yl)-8-[3-(2H-tetrazol-5-yl)-phenyl]-4H-pyrazolo[1,5-a]quinazolin-5-one] | 219 to 227
17 | Cl.Cn1c(=O)c2ccc(-c3ccc(N)nc3)cc2n2nc(-c3ccccc3)cc12 [Example 2, 8-(6-Amino-pyridin-3-yl)-4-methyl-2-phenyl-4H-pyrazolo[1,5-a]quinazolin-5-one] | 241 to 244
18 | Cn1c(=O)c2ccc(-c3ccc(F)cc3)cc2n2nc(-c3ccccc3)cc12 [Example 12, 8-(4-Fluoro-phenyl)-4-methyl-2-phenyl-4H-pyrazolo[1,5-a]quinazolin-5-one] | 178 to 180
19 | Cn1c(=O)c2ccc(-c3nn[nH]n3)cc2n2nc(-c3ccccc3)cc12 [Example 22, 4-Methyl-2-phenyl-8-(2H-tetrazol-5-yl)-4H-pyrazolo[1,5-a]quinazolin-5-one] | > 250
20 | Cn1c(=O)c2ccc(-c3cccnc3C(F)(F)F)cc2n2nc(-c3ccnc(C(F)(F)F)c3)cc12 [Example 142, 4-Methyl-2-(2-trifluoromethyl-pyridin-4-yl)-8-(2-trifluoromethyl-pyridin-3-yl)-4H-pyrazolo[1,5-a]quinazolin-5-one] | > 250

Results, then the molecule that gave them:

Row | melting point [°C] | Compound
21 | > 250 | Cl.Cn1c(=O)c2ccc(-c3ccc(N)nc3C(F)(F)F)cc2n2nc(-c3ccccc3)cc12
22 | 194 to 196 | Cl.Cn1c(=O)c2ccc(-c3ccc(N4CCOCC4)nc3)cc2n2nc(-c3ccccc3)cc12
23 | 200 to 203 | Cl.Cn1c(=O)c2ccc(-c3ccc(N4CCCCC4)nc3)cc2n2nc(-c3ccccc3)cc12
24 | 163 to 170 | CCn1c(=O)c2ccc(-c3ccc(N)nc3)cc2n2nc(CCOC)cc12.Cl
25 | 173 to 180 | CCn1c(=O)c2ccc(-c3cc(C)nc(C)c3)cc2n2nc(CCOC)cc12.Cl
26 | 120 to 125 | CCCn1c(=O)c2ccc(-c3cc(C)nc(C)c3)cc2n2nc(CCOC)cc12.Cl
27 | > 250 | COCc1cc2n(C)c(=O)c3ccc(-c4cc(C)nc(C)c4)cc3n2n1.Cl
28 | > 250 | CCCn1c(=O)c2ccc(-c3cc(C)nc(C)c3)cc2n2nc(C3CCCC3)cc12.Cl
29 | 167 to 169 | Cc1ncccc1-c1ccc2c(=O)n(C)c3cc(C4CCOCC4)nn3c2c1.Cl
30 | 140 to 146 | Cl.Cn1c(=O)c2ccc(-c3ccc(N)nn3)cc2n2nc(C3CCOCC3)cc12
31 | 231 to 235 | Cc1ccc(-c2ccc3c(=O)n(C)c4cc(C5CCOCC5)nn4c3c2)c(C)n1.Cl
32 | > 250 | Cc1cc(-c2ccc3c(=O)n(C)c4cc(-c5cc(C)nc(C)c5)nn4c3c2)cc(C)n1 (as salt: salt) [Example 114, 2,8-Bis-(2,6-dimethyl-pyridin-4-yl)-4-methyl-4H-pyrazolo[1,5-a]quinazolin-5-one]
33 | > 250 | Cc1cc(-c2cc3n(C)c(=O)c4ccc(-c5cccnc5)cc4n3n2)cc(C)n1 (as salt: salt) [Example 116, 2-(2,6-Dimethyl-pyridin-4-yl)-4-methyl-8-pyridin-3-yl-4H-pyrazolo[1,5-a]quinazolin-5-one]
34 | > 250 | Cc1cncc(-c2ccc3c(=O)n(C)c4cc(-c5cc(C)nc(C)c5)nn4c3c2)c1 (as salt: salt) [Example 118, 2-(2,6-Dimethyl-pyridin-4-yl)-4-methyl-8-(5-methyl-pyridin-3-yl)-4H-pyrazolo[1,5-a]quinazolin-5-one]
35 | > 250 | CCc1ncccc1-c1ccc2c(=O)n(C)c3cc(-c4cc(C)nc(C)c4)nn3c2c1 (as salt: salt) [Example 120, 2-(2,6-Dimethyl-pyridin-4-yl)-8-(2-ethyl-pyridin-3-yl)-4-methyl-4H-pyrazolo[1,5-a]quinazolin-5-one]
36 | > 250 | Cc1cc(-c2cc3n(C)c(=O)c4ccc(-c5cc(C)nc(C)c5)cc4n3n2)ccn1 (as salt: salt) [Example 133, 8-(2,6-Dimethyl-pyridin-4-yl)-4-methyl-2-(2-methyl-pyridin-4-yl)-4H-pyrazolo[1,5-a]quinazolin-5-one]
37 | > 250 | Cc1ncccc1-c1ccc2c(=O)n(C)c3cc(-c4cccnc4)nn3c2c1 (as salt: salt) [Example 134, 4-Methyl-8-(2-methyl-pyridin-3-yl)-2-pyridin-3-yl-4H-pyrazolo[1,5-a]quinazolin-5-one]
38 | > 250 | COc1ccc(-c2ccc3c(=O)n(C)c4cc(-c5ccccc5)nn4c3c2)cc1 [Example 7, 8-(4-Methoxy-phenyl)-4-methyl-2-phenyl-4H-pyrazolo[1,5-a]quinazolin-5-one]
39 | 132 to 134 | COCc1cccc(-c2ccc3c(=O)n(C)c4cc(-c5ccccc5)nn4c3c2)c1 [Example 9, 8-(3-Methoxymethyl-phenyl)-4-methyl-2-phenyl-4H-pyrazolo[1,5-a]quinazolin-5-one]
40 | 182 to 185 | COc1cccc(-c2ccc3c(=O)n(C)c4cc(-c5ccccc5)nn4c3c2)c1 [Example 11, 8-(3-Methoxy-phenyl)-4-methyl-2-phenyl-4H-pyrazolo[1,5-a]quinazolin-5-one]
41 | 159 to 163 | CC(C)Cn1c(=O)c2ccc(-c3cccc(S(=O)(=O)N(C)C)c3)cc2n2nc(-c3ccccc3)cc12 [Example 41, 3-(4-isobutyl-5-oxo-2-phenyl-4,5-dihydro-pyrazolo[1,5-a]quinazolin-8-yl)-N,N-dimethyl-benzenesulfonamide]
42 | > 250 | Cn1c(=O)c2ccc(-c3cn[nH]c3)cc2n2nc(C3CCOCC3)cc12 [Example 87, 4-Methyl-8-(1H-pyrazol-4-yl)-2-(tetrahydro-pyran-4-yl)-4H-pyrazolo[1,5-a]quinazolin-5-one]
43 | 211 to 213 | COc1ccc(-c2ccc3c(=O)n(C)c4cc(-c5cnn(C)c5)nn4c3c2)cc1 [Example 125, 8-(4-Methoxy-phenyl)-4-methyl-2-(1-methyl-1H-pyrazol-4-yl)-4H-pyrazolo[1,5-a]quinazolin-5-one]
